Source: patent publication US20130012479A1, “POLYMORPHS OF 6-(PIPERIDIN-4-YLOXY)-2H-ISOQUINOLIN-1-ONE HYDROCHLORIDE” (SANOFI, priority 2011, published 2013)
“Also recorded” adds a separate entry of the source. Structures can show the parent of a compound that is named as a salt. Each block holds one compound with its values, some of them ahead of it.

Legend:
Type in all cases: physicochemical
[1] = Temperature-resolved XRPD, DSC and TGA on heating; conditions: for solid-solid transition prior to melting: on heating
Experimental: In this temperature range, transformation to phase 3 was observed as determined by XRPD.
(§1) All X-ray powder diffraction was performed with Stoe Stadi-P transmission diffractometers using CuKα1 radiation (Lambda is 1.54060 Angström). For room temperature powder diffraction, linear position sensitive detectors were used while for temperature-resolved XRPD image plate position sensitive detectors (IP-PSDs) were used. Unless stated otherwise, X-ray powder diffraction was performed at room temperature. Dry samples were investigated in a flat preparation whereas suspensions were investigated in quartz glass capillaries. The measured data were evaluated and plotted with the Software WinXPOW V2.12.
The thermogravimetric analyses were performed with a METTLER TGA851e (module TGA/SDTA851e/SF1100/042). 100 μl Al crucibles sealed with lid were used. The sample changer punches a pinhole into the lid immediately before the start of the measurement. The oven cell is purged with a nitrogen gas flow of about 50 mL/min. The measurements typically start with a hold time of about 25 min at 25° C., followed by heating of the sample with a rate of 10°/min.
All DSC measurements were performed with a Mettler DSC822e (module DSC822e/700/109/414935/0025). If not indicated differently, 40 μl Al crucibles with sealed lid and hole were used. All measurements were carried out in a nitrogen gas flow of 50 mL/minute. The heating rate was 10° C./minute unless indicated otherwise. Temperature and heat flow were calibrated via the melting peak of an indium reference

[2] = Dynamic vapor sorption (DVS) water vapor sorption and desorption isotherms; conditions: 25° C.
Experimental: Moreover, the dihydrate may also be characterized by its DVS (dynamic vapor sorption) water vapor sorption and desorption isotherms measured at 25° C. as shown in FIG. 3. Before starting the sorption cycle the dihydrate sample is treated with dry nitrogen gas resulting in a transformation into phase 2 as shown by humidity resolved XRPD. […] A weight loss starts below 20% relative humidity and becomes strong below 10%, especially below 5%. The change in mass at low relative humidity is completely reversible and when the humidity increases again, the rehydration proceeds rapidly with small samples. However, for bulk samples rehydration of over-dried samples can take considerably longer and rehydration may require several days. Almost identical water sorption and desorption isotherms are observed at 40° C.
Moreover, phase 3 may also be characterized by its DVS (dynamic vapor sorption) water vapor sorption and desorption isotherms measured at 25° C. […] With decreasing humidity the dihydrate converts back at low humidity (below about 10% r.h.) into phase 2 (cycle 1, desorption). Phase 2 then converts into the dihydrate with increasing humidity and along the same isotherm it converts back with decreasing humidity into polymorph 2 (cycle 2, see also FIG. 3)
Moisture sorption/desorption isotherms were recorded on a DVS-1 from Surface Measurement Systems. […] Typical total measurement times for both cycles are about 20-30 hours.

[3] = Humidity-controlled (humidity-resolved) XRPD in a humidity chamber; conditions: for time until transformation into the dihydrate at 95% relative humidity: sample held at 95% r.h.
Experimental: When humidity-controlled XRPD was performed at 25 and 40° C., widely identical results were obtained.
Exposure to elevated humidity causes transformation to the dihydrate as determined with humidity-controlled XRPD performed at 25° C. […] Phase 1 transformed into the dihydrate after about 15 min at 95%, which in turn changed to phase 2 after about 40 min at 2% r.h.
Exposure to elevated humidity causes transformation to the dihydrate as determined by humidity-controlled XRPD at 25° C. […] As a result phase 3 transformed into the hydrate after about 30 min at 95%, which in turn changed to phase 2 after about 30 min at 2% r.h.
Exposure to elevated humidity causes transformation to the dihydrate as determined by humidity-controlled XRPD. […] As a result phase 4 transformed into the dihydrate after about 15 min at 95%, which in turn changed to phase 2 after about 20 min at 2% r.h.
as §1

[4] = Storage under usual storage conditions (25° C./65% relative humidity)
From the text: Moreover, the corresponding amorphous material is hygroscopic and the water content varies much stronger with the relative humidity compared to the dihydrate. This water uptake and variability in water content makes precise dosing during drug product manufacturing difficult. […] Accordingly, the crystalline dihydrate is therefore the preferred solid form for drug product manufacturing.

[5] = Maturation experiments (slurry conversion) of suspensions; conditions: for solid phase after maturation: 20° C., 35 days; for relative stability of the phase from maturation experiments: suspensions of phase mixtures in dry organic solvents, temperature range from 0 to 40° C.
Experimental: By maturation experiments (slurry conversion) at the given temperature the relative stability of the polymorphs of compound (I) and the hydrate was investigated.
The following maturation experiment was performed by stirring the suspension under the specified conditions, starting from the dihydrate. The sample was investigated by XRPD in suspension, after vacuum filtration as well as after drying over night at 40° C. in vacuum (<50 mbar). The isolated material was also investigated by DSC and TGA.
a) Maturation of 0.210 g dihydrate of compound (I) in 0.4 mL of water at 20° C. for 35 days. Similar, maturation of the dihydrate was done in water/methanol (vol/vol 1:1) and in water/ethanol (vol/vol 1:1).
The following maturation experiments were performed by stirring the suspension under the specified conditions and isolating the solid by vacuum filtration, starting from dihydrate of compound (I). The sample was investigated by XRPD in suspension, after vacuum filtration as well as after drying. The isolated material was also investigated by DSC and TGA.
(b) Maturation of 0.203 g of dihydrate of compound (I) in 1.2 mL of methanol at 20° C. for 35 days. (c) Maturation was also done as in (b) by using ethanol, 1-propanol or 2-propanol.
The following maturation experiments of suspensions of phase mixtures of the dihydrate of compound (I) and phases consisting of polymorphs 1, 3 and 4 were performed at 0, 20 and 40° C. The product was isolated by vacuum filtration and analyzed after drying.
e) Maturation of a mixture of 0.3 mg phase 1, 23.9 mg phase 3, 29.9 mg phase 4 and 27.9 mg of the dihydrate in 0.7 mL 2-propanol at 0° C. for 2 weeks. f) Maturation of a mixture of 0.3 mg phase 1, 27.2 mg phase 3, 18.1 mg phase 4 and 29.6 mg of the dihydrate in 2.0 mL 2-butanol at 0° C. for 2 weeks. g) Similar experiments as in e) and f) were done with corresponding mixtures of phase 1, phase 3, phase 4 and the dihydrate in 2-propanol and 2-butanol at 20° C. and at 40° C., respectively

[6] = Drying of the dihydrate, retention of crystal structure; conditions: dihydrate dried
From the text: In a further embodiment of the hydrate the water content is 11.4% (w/w). In a further embodiment the hydrate contains 2.0 molecules water per molecule (I). Although the hydrate phase typically contains about 10-12.5% water it can also occur with lower water content. The crystal structure of the hydrate remains even if the dihydrate is dried and the remaining water content is down to about 3%. Water uptake is reversible if humidity in the environment is raised again. The water content in the isolated product depends on the drying conditions used during work up of the hydrate after crystallisation.

[7] = Stability of the solvate outside the mother liquor; conditions: in the presence of humidity starts to transform to the hydrate
From the text: Thus, a further aspect of the present invention relates to the use of the methyl acetate solvate of compound (I) for the production of the hydrate, for example by subjecting it to conditions, such as an elevated temperature and/or humidity which facilitate the loss of methyl acetate and attracting water.

[8] = Suspension in water, phase transformation
Experimental: (§2) Also storage of phase 3 at 20° C. and 75% relative humidity caused complete conversion to the dihydrate within 3 weeks. The rate of conversion correlates with the relative humidity. When suspended in water, complete transformation into the dihydrate was observed almost immediately (<10 min).

[9] = Storage at 20° C. and 75% relative humidity
Experimental: Also storage of phase 1 at 20° C. and 75% relative humidity caused complete conversion to the dihydrate within 3 weeks. The rate of conversion correlates with the relative humidity.
as §2
Also storage of phase 4 at 20° C. and 75% relative humidity caused complete conversion to the dihydrate within 3 weeks. The rate of conversion apparently correlates with the relative humidity.

[10] = listed as phase 1, hydrochloride
[11] = listed as phase 3, hydrochloride
[12] = listed as phase 4, hydrochloride

stability of the solvate outside the mother liquor [7]: only moderately stable
SMILES: O=c1[nH]ccc2cc(OC3CCNCC3)ccc12 [methyl acetate solvate, 6-(Piperidin-4-yloxy)-2H-isoquinolin-1-one hydrochloride]

time until transformation into the dihydrate at 95% relative humidity ([3]; listed as Phase 1, hydrochloride): about 15 min
relative stability of the phase from maturation experiments [5, 10]: only a metastable polymorph
SMILES: O=c1[nH]ccc2cc(OC3CCNCC3)ccc12 [polymorph 1, 6-(Piperidin-4-yloxy)-2H-isoquinolin-1-one hydrochloride]
solid-solid transition prior to melting [1, 10]: melted without preceding solid-solid transitions; also recorded: No transformation into another crystalline phase

time until transformation into the dihydrate at 95% relative humidity [3, 11]: about 30 min
relative humidity above which the phase changed into the dihydrate ([2]; cycle 1, sorption): above 80%
relative stability at low relative humidity ([5]; at and around room temperature, less than about 10% relative humidity): the most stable phase
time to complete transformation into the dihydrate when suspended in water [8]: < 10 min
SMILES: O=c1[nH]ccc2cc(OC3CCNCC3)ccc12 [polymorph 3, 6-(Piperidin-4-yloxy)-2H-isoquinolin-1-one hydrochloride]
relative stability of the phase from maturation experiments [5, 11]: the most stable anhydrous phase; also recorded: thermodynamically most stable anhydrous form
solid-solid transition prior to melting [1, 11]: melted without preceding solid-solid transitions; also recorded: No transformation into another crystalline phase

time until transformation into the dihydrate at 95% relative humidity [3, 12]: about 15 min
time to complete conversion to the dihydrate on storage [9]: ≤ 3 weeks
relative stability of the phase from maturation experiments [5, 12]: only a metastable one
SMILES: O=c1[nH]ccc2cc(OC3CCNCC3)ccc12 [polymorph 4, 6-(Piperidin-4-yloxy)-2H-isoquinolin-1-one hydrochloride]
solid-solid transition prior to melting [1, 12]: No transformation into another crystalline phase 1, 2 or 3; also recorded: melted without preceding solid-solid transitions

Second part, the compound before the results:

SMILES: O=c1[nH]ccc2cc(OC3CCNCC3)ccc12 [1,4-dioxane solvate, 6-(Piperidin-4-yloxy)-2H-isoquinolin-1-one hydrochloride×0.5 1,4-dioxane solvate]
stability of the solvate on heating [1]: relatively stable

SMILES: O=c1[nH]ccc2cc(OC3CCNCC3)ccc12 [amorphous material, 6-(Piperidin-4-yloxy)-2H-isoquinolin-1-one hydrochloride]
hygroscopicity / water content as a function of relative humidity ([2]; hydrochloride): hygroscopic

SMILES: O=c1[nH]ccc2cc(OC3CCNCC3)ccc12 [dihydrate, 6-(Piperidin-4-yloxy)-2H-isoquinolin-1-one hydrochloride dihydrate]
relative humidity at which reversible transformation into phase 2 was observed ([3]; 25 and 40° C.): 2%
time until the dihydrate changed to phase 2 at 2% r.h. ([3]; sample held at 2% r.h., hydrochloride dihydrate): about 30 min
relative humidity below which the dihydrate converts into phase 2 ([2]; cycle 1, desorption): below 10%
relative humidity below which weight loss starts ([2]; desorption cycle): below 20%
hygroscopicity / water content as a function of relative humidity ([2]; hydrochloride dihydrate): quite constant water content
water content in the desorption cycle ([2]; relative humidities between 95% and 20%): almost constant
stability under usual storage conditions [4]: stable for more than two years
decomposition on storage ([4]; more than two years): no detectable decomposition
solid phase after maturation ([5]; 2-butanol, after drying): Polymorph 4 was obtained
solid phase after maturation ([5]; methanol, ethanol, 1-propanol or 2-propanol): polymorph 3 was obtained
solid phase after maturation ([5]; water, water/methanol (1:1) or water/ethanol (1:1)): remained as dihydrate
temperature below which the form is stable [1]: below 90 °C
temperature at which transformation to phase 3 starts ([1]; temperature-resolved XRPD, on heating with loss of water): about 90 °C
remaining water content down to which the crystal structure of the hydrate remains [6]: about 3%

SMILES: O=c1[nH]ccc2cc(OC3CCNCC3)ccc12 [polymorph 2, 6-(Piperidin-4-yloxy)-2H-isoquinolin-1-one hydrochloride]
solid-solid transition prior to melting ([1]; listed as phase 2, hydrochloride): melted without preceding solid-solid transitions
